Experimental data from patent US10168342B2, “Lipid probes and uses thereof” (THE SCRIPPS RESEARCH INSTITUTE, priority 2015, dated 2019).
Read-outs that look alike come from different tables or passages of the source.

Legend:
[1] = target: T1, AEA-DA lipid probe targets in Neuro2a cells (Mus musculus, UniProt P52825)
T1 sequence (P52825 26-658): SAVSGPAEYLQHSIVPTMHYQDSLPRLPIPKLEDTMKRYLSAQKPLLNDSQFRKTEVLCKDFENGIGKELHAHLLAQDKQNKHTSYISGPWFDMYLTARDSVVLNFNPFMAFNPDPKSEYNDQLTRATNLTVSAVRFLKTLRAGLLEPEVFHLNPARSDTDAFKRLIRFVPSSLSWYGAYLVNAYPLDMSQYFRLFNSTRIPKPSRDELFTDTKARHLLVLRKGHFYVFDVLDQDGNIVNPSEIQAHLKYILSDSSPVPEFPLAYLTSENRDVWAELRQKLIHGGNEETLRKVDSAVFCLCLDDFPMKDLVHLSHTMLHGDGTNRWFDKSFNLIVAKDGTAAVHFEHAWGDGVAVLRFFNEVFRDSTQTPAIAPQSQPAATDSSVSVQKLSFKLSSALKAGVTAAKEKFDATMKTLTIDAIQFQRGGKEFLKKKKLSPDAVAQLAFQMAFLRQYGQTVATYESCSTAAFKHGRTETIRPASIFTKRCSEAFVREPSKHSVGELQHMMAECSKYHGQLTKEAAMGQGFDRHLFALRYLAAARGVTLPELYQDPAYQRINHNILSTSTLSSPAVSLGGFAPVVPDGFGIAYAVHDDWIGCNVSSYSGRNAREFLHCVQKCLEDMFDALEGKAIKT

[2] = target: AEA-DA lipid probe targets in Neuro2a cells (Mus musculus, UniProt Q8C0L6)
[3] = target: AEA-DA lipid probe targets in Neuro2a cells (Mus musculus, UniProt Q9DBG6)
[4] = target: T2, AEA-DA lipid probe targets in Neuro2a cells (Mus musculus, UniProt Q8R127)
T2 sequence (Q8R127 1-429): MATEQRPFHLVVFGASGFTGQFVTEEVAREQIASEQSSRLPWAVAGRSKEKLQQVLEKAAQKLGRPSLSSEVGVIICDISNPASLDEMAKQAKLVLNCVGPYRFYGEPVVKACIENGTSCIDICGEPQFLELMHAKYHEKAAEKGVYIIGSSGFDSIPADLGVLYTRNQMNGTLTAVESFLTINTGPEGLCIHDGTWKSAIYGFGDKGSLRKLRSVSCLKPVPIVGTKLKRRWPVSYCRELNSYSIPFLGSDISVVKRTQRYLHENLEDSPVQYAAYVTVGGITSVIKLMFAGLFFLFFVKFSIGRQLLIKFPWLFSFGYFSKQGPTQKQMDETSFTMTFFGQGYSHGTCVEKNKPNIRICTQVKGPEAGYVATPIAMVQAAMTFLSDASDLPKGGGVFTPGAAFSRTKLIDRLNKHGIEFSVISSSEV

[5] = target: T3, AEA-DA lipid probe targets in Neuro2a cells (Mus musculus, UniProt Q8BXN9)
T3 sequence (Q8BXN9 22-555): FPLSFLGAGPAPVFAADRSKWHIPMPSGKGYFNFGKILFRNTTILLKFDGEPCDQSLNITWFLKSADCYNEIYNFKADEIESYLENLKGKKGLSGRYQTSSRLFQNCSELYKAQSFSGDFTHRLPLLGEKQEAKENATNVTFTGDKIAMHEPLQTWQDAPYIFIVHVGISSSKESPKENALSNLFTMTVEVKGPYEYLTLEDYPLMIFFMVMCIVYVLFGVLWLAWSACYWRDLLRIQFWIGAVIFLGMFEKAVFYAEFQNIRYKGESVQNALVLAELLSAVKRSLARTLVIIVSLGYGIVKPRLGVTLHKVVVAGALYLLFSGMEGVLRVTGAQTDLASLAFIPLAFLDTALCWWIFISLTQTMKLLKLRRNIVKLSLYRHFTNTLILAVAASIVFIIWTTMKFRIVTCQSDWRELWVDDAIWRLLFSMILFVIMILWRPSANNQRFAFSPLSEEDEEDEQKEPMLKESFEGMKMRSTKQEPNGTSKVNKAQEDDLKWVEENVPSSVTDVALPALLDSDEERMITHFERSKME

[6] = target: T4, AEA-DA lipid probe targets in Neuro2a cells (Mus musculus, UniProt O89023)
T4 sequence (O89023 195-562): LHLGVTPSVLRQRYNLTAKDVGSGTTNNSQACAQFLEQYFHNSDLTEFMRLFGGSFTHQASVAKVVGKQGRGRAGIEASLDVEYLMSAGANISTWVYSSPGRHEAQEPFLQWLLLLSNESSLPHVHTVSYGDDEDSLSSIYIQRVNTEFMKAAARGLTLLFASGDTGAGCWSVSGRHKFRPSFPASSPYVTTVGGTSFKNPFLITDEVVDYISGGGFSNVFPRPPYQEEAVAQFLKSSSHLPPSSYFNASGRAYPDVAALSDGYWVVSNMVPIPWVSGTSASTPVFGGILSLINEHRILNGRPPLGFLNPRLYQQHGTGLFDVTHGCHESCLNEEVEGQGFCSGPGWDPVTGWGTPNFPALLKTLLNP

[7] = target: T5, AEA-DA lipid probe targets in Neuro2a cells (Mus musculus, UniProt Q9QZD8)
T5 sequence (Q9QZD8 1-287): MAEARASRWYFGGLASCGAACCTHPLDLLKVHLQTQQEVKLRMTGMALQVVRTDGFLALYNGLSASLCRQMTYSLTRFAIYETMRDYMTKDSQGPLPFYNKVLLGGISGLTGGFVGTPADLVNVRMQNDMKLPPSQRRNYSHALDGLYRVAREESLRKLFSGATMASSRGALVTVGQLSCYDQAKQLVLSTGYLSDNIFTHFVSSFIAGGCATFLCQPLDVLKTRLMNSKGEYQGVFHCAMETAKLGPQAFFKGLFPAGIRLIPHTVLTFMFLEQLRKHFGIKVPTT

[8] = target: AEA-DA lipid probe targets in Neuro2a cells (Mus musculus, UniProt Q64310)
AEA-DA lipid probe targets in Neuro2a cells (Mus musculus, UniProt Q64310), sequence (Q64310 whole entry): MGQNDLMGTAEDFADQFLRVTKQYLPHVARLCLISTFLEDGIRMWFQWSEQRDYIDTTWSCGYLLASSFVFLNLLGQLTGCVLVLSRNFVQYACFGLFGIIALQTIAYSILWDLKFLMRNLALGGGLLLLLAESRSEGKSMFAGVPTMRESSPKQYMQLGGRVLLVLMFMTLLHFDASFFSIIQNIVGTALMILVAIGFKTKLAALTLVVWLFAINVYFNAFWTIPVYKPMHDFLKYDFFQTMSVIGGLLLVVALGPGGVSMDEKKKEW

AEA-DA lipid probe targets in Neuro2a cells (Mus musculus, UniProt Q8C0L6), sequence (Q8C0L6 whole entry): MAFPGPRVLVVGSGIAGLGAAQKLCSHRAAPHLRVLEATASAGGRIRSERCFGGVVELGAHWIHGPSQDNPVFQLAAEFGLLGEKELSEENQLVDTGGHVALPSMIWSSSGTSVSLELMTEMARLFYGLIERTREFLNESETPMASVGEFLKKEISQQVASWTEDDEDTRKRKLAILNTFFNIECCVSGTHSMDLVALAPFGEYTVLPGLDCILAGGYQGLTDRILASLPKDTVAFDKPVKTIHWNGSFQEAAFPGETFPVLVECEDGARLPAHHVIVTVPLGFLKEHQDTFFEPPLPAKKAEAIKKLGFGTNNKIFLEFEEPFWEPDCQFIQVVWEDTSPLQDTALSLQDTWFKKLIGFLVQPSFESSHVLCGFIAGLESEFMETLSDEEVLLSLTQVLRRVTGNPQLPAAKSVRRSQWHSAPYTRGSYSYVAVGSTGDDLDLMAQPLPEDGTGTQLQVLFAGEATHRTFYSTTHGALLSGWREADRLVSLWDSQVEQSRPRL
AEA-DA lipid probe targets in Neuro2a cells (Mus musculus, UniProt Q9DBG6), sequence (Q9DBG6 23-631): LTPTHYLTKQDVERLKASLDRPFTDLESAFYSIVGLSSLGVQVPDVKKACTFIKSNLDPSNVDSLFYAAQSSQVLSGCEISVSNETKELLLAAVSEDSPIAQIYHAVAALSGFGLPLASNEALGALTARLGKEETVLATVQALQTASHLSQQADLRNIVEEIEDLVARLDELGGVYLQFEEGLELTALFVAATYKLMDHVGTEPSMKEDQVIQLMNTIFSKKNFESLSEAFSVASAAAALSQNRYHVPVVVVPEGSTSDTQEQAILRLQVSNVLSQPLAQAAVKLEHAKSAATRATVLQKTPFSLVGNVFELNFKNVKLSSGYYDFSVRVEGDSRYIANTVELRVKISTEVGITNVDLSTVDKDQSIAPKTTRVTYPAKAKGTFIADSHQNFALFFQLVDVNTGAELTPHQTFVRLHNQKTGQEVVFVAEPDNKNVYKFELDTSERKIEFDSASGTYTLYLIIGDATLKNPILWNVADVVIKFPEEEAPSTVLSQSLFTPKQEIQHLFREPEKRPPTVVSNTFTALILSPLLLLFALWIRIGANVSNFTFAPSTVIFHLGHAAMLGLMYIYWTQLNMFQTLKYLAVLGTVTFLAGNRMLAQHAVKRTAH

O=C(/C=C/c1cccnc1)NCCCCC1CCN(C(=O)c2ccccc2)CC1 [FK-866, reference compound]
SILAC ratio, Cpt2 ([1]; competitor 25 μM): 3.1 | SILAC ratio, Paox ([2]; competitor 25 μM): 3.2 | SILAC ratio Rpn2 ([3]; competitor 25 μM): 1.1 | SILAC ratio, Sccpdh ([4]; competitor 25 μM): 7.3 | SILAC ratio, Tmem87a ([5]; competitor 25 μM): 1.1 | SILAC ratio Tpp1 ([6]; competitor 25 μM): 1.0 | SILAC ratio Slc25a10 ([7]; competitor 25 μM): 1.2 | SILAC ratio Surf4 ([8]; competitor 25 μM): 1.2

CCCCC/C=C\C/C=C\C/C=C\C/C=C\CCCC(=O)NCCO [AEA, anandamide, reference compound]
SILAC ratio, Cpt2 ([1]; competitor 200 μM): 1.1 | SILAC ratio, Paox ([2]; competitor 200 μM): 7.5 | SILAC ratio Rpn2 ([3]; competitor 200 μM): 1.3 | SILAC ratio, Sccpdh ([4]; competitor 200 μM): 3.4 | SILAC ratio, Tmem87a ([5]; competitor 200 μM): 1.8 | SILAC ratio Tpp1 ([6]; competitor 200 μM): 1.5 | SILAC ratio Slc25a10 ([7]; competitor 200 μM): 1.2 | SILAC ratio Surf4 ([8]; competitor 200 μM): 1.4

CN1CCN(C(=O)c2c(-c3ccccc3)c3cc([N+](=O)[O-])ccc3n2C)CC1 [KML110, (1-Methyl-5-nitro-3-phenyl-1H-indol-2-yl)(4-methylpiperazin-1-yl)methanone]
SILAC ratio, Cpt2 ([1]; competitor 25 μM): 1.5 | SILAC ratio, Paox ([2]; competitor 25 μM): 2.9 | SILAC ratio Rpn2 ([3]; competitor 25 μM): 1.2 | SILAC ratio, Sccpdh ([4]; competitor 25 μM): 2.6 | SILAC ratio, Tmem87a ([5]; competitor 25 μM): 1.8 | SILAC ratio Tpp1 ([6]; competitor 25 μM): 1.5 | SILAC ratio Slc25a10 ([7]; competitor 25 μM): 1.2 | SILAC ratio Surf4 ([8]; competitor 25 μM): 1.4

C=CCN(C)CCCCCCOc1ccc(C(=O)c2ccc(Br)cc2)c(F)c1 [Ro 48-8071, reference compound]
SILAC ratio, Cpt2 ([1]; competitor 25 μM): 2.1 | SILAC ratio, Paox ([2]; competitor 25 μM): 2.4 | SILAC ratio Rpn2 ([3]; competitor 25 μM): 1.0 | SILAC ratio, Sccpdh ([4]; competitor 25 μM): 1.6 | SILAC ratio, Tmem87a ([5]; competitor 25 μM): 2.3 | SILAC ratio Tpp1 ([6]; competitor 25 μM): 0.8 | SILAC ratio Slc25a10 ([7]; competitor 25 μM): 0.9 | SILAC ratio Surf4 ([8]; competitor 25 μM): 1.1

CN1CCN(C(=O)c2[nH]c3ccc([N+](=O)[O-])cc3c2-c2ccccc2)CC1 [MJN228, (4-Methylpiperazin-1-yl)(5-nitro-3-phenyl-1H-indol-2-yl)methanone]
SILAC ratio, Cpt2 ([1]; competitor 10 μM): 1.3 | SILAC ratio, Cpt2 ([1]; competitor 25 μM): 1.7 | SILAC ratio, Cpt2 ([1]; competitor 50 μM): 2.7 | SILAC ratio, Cpt2 ([1]; competitor 100 μM): 5.5 | SILAC ratio, Paox ([2]; competitor 10 μM): 2.1 | SILAC ratio, Paox ([2]; competitor 25 μM): 3.2 | SILAC ratio, Paox ([2]; competitor 50 μM): 4.5 | SILAC ratio, Paox ([2]; competitor 100 μM): 13.5 | SILAC ratio Rpn2 ([3]; competitor 10 μM): 1.2 | SILAC ratio Rpn2 ([3]; competitor 25 μM): 1.3 | SILAC ratio Rpn2 ([3]; competitor 50 μM): 1.4 | SILAC ratio Rpn2 ([3]; competitor 100 μM): 1.7 | SILAC ratio, Sccpdh ([4]; competitor 10 μM): 1.4 | SILAC ratio, Sccpdh ([4]; competitor 25 μM): 2.1 | SILAC ratio, Sccpdh ([4]; competitor 50 μM): 3.3 | SILAC ratio, Sccpdh ([4]; competitor 100 μM): 5.9 | SILAC ratio, Tmem87a ([5]; competitor 10 μM): 1.3 | SILAC ratio, Tmem87a ([5]; competitor 25 μM): 1.9 | SILAC ratio, Tmem87a ([5]; competitor 50 μM): 1.6 | SILAC ratio, Tmem87a ([5]; competitor 100 μM): 2.7 | SILAC ratio Tpp1 ([6]; competitor 10 μM): 1.4 | SILAC ratio Tpp1 ([6]; competitor 25 μM): 1.4 | SILAC ratio Tpp1 ([6]; competitor 50 μM): 1.8 | SILAC ratio Tpp1 ([6]; competitor 100 μM): 2.0 | SILAC ratio Slc25a10 ([7]; competitor 10 μM): 1.2 | SILAC ratio Slc25a10 ([7]; competitor 25 μM): 1.2 | SILAC ratio Slc25a10 ([7]; competitor 50 μM): 1.3 | SILAC ratio Slc25a10 ([7]; competitor 100 μM): 1.0 | SILAC ratio Surf4 ([8]; competitor 10 μM): 1.3 | SILAC ratio Surf4 ([8]; competitor 25 μM): 1.4 | SILAC ratio Surf4 ([8]; competitor 50 μM): 1.7 | SILAC ratio Surf4 ([8]; competitor 100 μM): 2.0
